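Five compound concentrations were applied to cells in 96-well plates for 48 hours; endpoints were derived by simple linear interpolation of the resulting dose-response curve. GI50 = concentration required for 50% inhibition of growth. The concentration for full growth arrest is given as TGI.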
Experiments:
Assay in all cases: NCI anticancer screen, dose series, 48 h
SF-295 CNS = test system: SF-295 CNS
SK-MEL-2 melanoma = test system: SK-MEL-2 melanoma
EKVX NSCLC = test system: EKVX NSCLC
HL-60(TB) leukemia = test system: HL-60(TB) leukemia
LOX IMVI melanoma = test system: LOX IMVI melanoma
MDA-N = test system: MDA-N
MDA-MB-435 = test system: MDA-MB-435
TK-10 renal = test system: TK-10 renal
BT-549 breast = test system: BT-549 breast
DU-145 prostate = test system: DU-145 prostate
SW-620 colon = test system: SW-620 colon
MCF7 breast = test system: MCF7 breast
SK-MEL-5 melanoma = test system: SK-MEL-5 melanoma
MOLT-4 leukemia = test system: MOLT-4 leukemia
IGROV1 ovarian = test system: IGROV1 ovarian
SK-OV-3 ovarian = test system: SK-OV-3 ovarian
NCI-H226 lung = test system: NCI-H226 lung

Row | Compound | TGI (SF-295 CNS) [µM] | TGI (SK-MEL-2 melanoma) [µM] | TGI (EKVX NSCLC) [µM] | TGI (HL-60(TB) leukemia) [µM] | TGI (LOX IMVI melanoma) [µM] | TGI (MDA-N) [µM] | TGI (MDA-MB-435) [µM] | TGI (TK-10 renal) [µM] | TGI (BT-549 breast) [µM] | TGI (DU-145 prostate) [µM] | TGI (SW-620 colon) [µM] | TGI (MCF7 breast) [µM] | TGI (SK-MEL-5 melanoma) [µM] | TGI (MOLT-4 leukemia) [µM] | TGI (IGROV1 ovarian) [µM] | TGI (SK-OV-3 ovarian) [µM] | TGI (NCI-H226 lung) [µM] | GI50 (EKVX NSCLC) [µM] | GI50 (MOLT-4 leukemia) [µM]
1 | C=C(Cl)C(=C)CCC(Cl)C(C)C (stereo not drawn) | > 100 | > 100 | > 100 | > 100 | > 100 | > 100 | > 100 | > 100 | > 100 | > 100 | > 100 | > 100 | > 100 | > 100 | > 100 | > 100 | > 100 | – | –
2 | COc1ccc2c(c1)CCC1=CC3(CCC12C)SCCS3 (stereo not drawn) | > 10 | – | – | 8.36 | > 10 | 6.36 | > 10 | > 10 | > 10 | > 10 | > 10 | > 10 | > 10 | > 10 | > 10 | > 10 | – | – | –
3 | Cc1ccc(/C=C/C(=O)c2cc(CN(C)C)c(O)c(CN(C)C)c2)cc1 | 27.7 | – | > 100 | 38.5 | 21.2 | 42.5 | 57 | > 100 | 35.4 | > 100 | 38.2 | 50.1 | 30.6 | 57.2 | > 100 | – | 59.5 | – | –
4 | Cc1cn(C2CC(N)C(C(=O)O)O2)c(=O)[nH]c1=O (stereo not drawn) | – | > 100 | > 100 | > 100 | – | > 100 | > 100 | > 100 | > 100 | > 100 | > 100 | > 100 | > 100 | > 100 | > 100 | > 100 | > 100 | – | –
5 | COc1cccc(C2C3=C(COC3=O)Oc3cc4c(cc32)OCO4)c1 (stereo not drawn) | 0.228 | > 100 | > 58 | 0.0524 | > 22.1 | < 0.0202 | 0.0817 | 93.6 | > 100 | 6.77 | > 100 | > 100 | > 43.1 | 14.1 | > 64.9 | – | – | – | –
6 | NC(N)=NCCCC(NC(=O)OCCCCCCn1ccc(N)nc1=O)C(=O)O (stereo not drawn) | > 100 | > 100 | > 100 | > 100 | > 100 | > 100 | > 100 | > 100 | > 100 | > 100 | > 100 | > 100 | – | > 100 | > 100 | > 100 | 33.6 | – | –
7 | C=C1CN(Cc2ccccc2)[C@@H]2CCCCC[C@H](C#N)[C@H]12 | > 30.7 | > 100 | > 100 | – | > 100 | > 100 | > 100 | > 100 | > 100 | > 100 | > 100 | > 100 | > 100 | > 100 | > 100 | > 100 | > 100 | – | –
8 | C=C1C(=O)O[C@H]2[C@H]1CC(=O)/C(C)=C/CC[C@@]1(C)O[C@@H]21 | 31.6 | 8.47 | 24.8 | – | 1.47 | 1.27 | 5.43 | 2.65 | 2 | 18.7 | 0.768 | 1.99 | 2.63 | 1.13 | 6.27 | 25.9 | 19.8 | 6.06 | 0.276
9 | COc1cc2c(cc1OCc1ccccc1)NC(=S)[C@@H]1CCCN1C2=S | > 100 | > 100 | > 100 | – | > 100 | > 100 | > 100 | > 100 | > 100 | > 100 | > 100 | > 100 | > 100 | > 100 | > 100 | > 100 | > 100 | – | –
10 | Cc1cc(OCC(=O)N/N=C/C(Br)=C/c2ccccc2)nc(SCC(=O)N/N=C/C(Br)=C/c2ccccc2)n1 | > 100 | – | > 100 | > 100 | > 100 | > 100 | > 100 | – | > 100 | > 100 | > 100 | > 100 | > 100 | – | > 100 | – | – | – | –
11 | Cc1c(C)c(S(=O)(=O)N(CCCN)OCCCN)c(C)c2c1OC(C)(C)C2 | 98.9 | 26.7 | 31.3 | – | 34.9 | 33.6 | > 100 | > 100 | > 100 | > 100 | 59.8 | 38.4 | > 100 | 42.7 | 45.8 | > 100 | > 100 | – | –
12 | Clc1nc2n(c1/C=C/c1cccs1)CCS2 | > 100 | > 100 | > 100 | > 100 | – | > 100 | > 100 | > 100 | 90.4 | > 100 | > 100 | > 100 | 32.9 | 35.2 | > 100 | 95.8 | > 100 | – | –
13 | Cc1ccsc1/C=N/Nc1nncc2ccccc12 | > 100 | 92 | > 100 | – | > 100 | > 100 | > 100 | > 100 | > 100 | > 100 | > 100 | > 100 | > 100 | > 100 | > 100 | > 100 | > 100 | – | –
14 | O=C(c1ccc(Br)cc1)n1c2ccc(Br)cc2c2nc3ccccc3nc21 | > 100 | > 100 | > 100 | > 100 | > 100 | > 100 | > 100 | > 100 | > 100 | > 100 | > 100 | > 100 | > 100 | > 100 | > 100 | – | > 100 | – | –
15 | O=C(Nc1ccccc1F)c1cc2ccc(O)cc2oc1=Nc1cccc(C(F)(F)F)c1 | > 100 | 36 | 10.6 | 4.84 | 6.52 | > 100 | 22.7 | – | 8.42 | > 100 | > 100 | > 100 | 4.91 | 67.8 | 5.54 | 35.2 | – | – | –

— PubChem BioAssay (NCI)
